Data taken from ChEMBL document CHEMBL1150977, “A quantitative analysis of kinase inhibitor selectivity” (Nat Biotechnol, 2008).
pKd: −log10 of the molar value.

Legend:
[1] = biological target: ALK tyrosine kinase receptor (Homo sapiens, UniProt Q9UM73)
[2] = biological target: Receptor-type tyrosine-protein kinase FLT3 (Homo sapiens, UniProt P36888, N841I)
[3] = biological target: Protein kinase C delta type (Homo sapiens, UniProt Q05655)
eIF-2-alpha kinase GCN2 = eIF-2-alpha kinase GCN2 (Homo sapiens, UniProt Q9P2K8, S808G)
[4] = biological target: STE20-like serine/threonine-protein kinase (Homo sapiens, UniProt Q9H2G2)
[5] = biological target: Vascular endothelial growth factor receptor 1 (Homo sapiens, UniProt P17948)
[6] = biological target: RAC-alpha serine/threonine-protein kinase (Homo sapiens, UniProt P31749)
LIM domain kinase 2 = LIM domain kinase 2 (Homo sapiens, UniProt P53671)
[7] = biological target: Serine/threonine-protein kinase 32B (Homo sapiens, UniProt Q9NY57)
[8] = biological target: Cyclin-dependent kinase 7 (Homo sapiens, UniProt P50613)
[9] = biological target: Bone morphogenetic protein receptor type-1A (Homo sapiens, UniProt P36894)
[10] = biological target: T1, Phosphorylase b kinase gamma catalytic chain, liver/testis isoform (Homo sapiens, UniProt P15735)
T1 sequence (P15735 whole entry): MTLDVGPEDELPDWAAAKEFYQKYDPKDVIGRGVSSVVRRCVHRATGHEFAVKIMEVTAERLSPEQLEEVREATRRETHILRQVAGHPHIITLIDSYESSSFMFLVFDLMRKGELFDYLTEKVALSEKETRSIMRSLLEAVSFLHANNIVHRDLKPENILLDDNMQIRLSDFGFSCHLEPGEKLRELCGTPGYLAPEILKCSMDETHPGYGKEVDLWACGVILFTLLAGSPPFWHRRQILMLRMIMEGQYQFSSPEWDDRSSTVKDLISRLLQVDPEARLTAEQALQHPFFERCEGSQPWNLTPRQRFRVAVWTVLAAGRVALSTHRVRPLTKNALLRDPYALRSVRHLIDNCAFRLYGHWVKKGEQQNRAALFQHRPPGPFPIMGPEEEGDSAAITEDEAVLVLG

TGF-beta receptor type-1 = biological target: T2, TGF-beta receptor type-1 (Homo sapiens, UniProt P36897)
T2 sequence (P36897 whole entry): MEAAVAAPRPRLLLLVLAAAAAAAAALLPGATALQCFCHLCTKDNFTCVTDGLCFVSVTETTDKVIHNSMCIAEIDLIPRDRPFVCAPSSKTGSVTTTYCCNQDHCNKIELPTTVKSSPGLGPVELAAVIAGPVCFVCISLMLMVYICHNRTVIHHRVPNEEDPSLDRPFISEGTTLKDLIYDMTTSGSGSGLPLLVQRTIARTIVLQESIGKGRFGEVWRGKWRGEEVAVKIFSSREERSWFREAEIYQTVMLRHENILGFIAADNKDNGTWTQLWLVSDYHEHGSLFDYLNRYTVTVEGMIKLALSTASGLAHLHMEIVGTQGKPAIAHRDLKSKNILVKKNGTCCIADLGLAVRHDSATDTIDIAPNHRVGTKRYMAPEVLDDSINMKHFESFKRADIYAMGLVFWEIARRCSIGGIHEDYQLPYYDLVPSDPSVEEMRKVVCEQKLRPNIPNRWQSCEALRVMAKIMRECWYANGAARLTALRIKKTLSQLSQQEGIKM

[11] = biological target: RAC-gamma serine/threonine-protein kinase (Homo sapiens, UniProt Q9Y243)
[12] = biological target: T3, NUAK family SNF1-like kinase 1 (Homo sapiens, UniProt O60285)
T3 sequence (O60285 whole entry): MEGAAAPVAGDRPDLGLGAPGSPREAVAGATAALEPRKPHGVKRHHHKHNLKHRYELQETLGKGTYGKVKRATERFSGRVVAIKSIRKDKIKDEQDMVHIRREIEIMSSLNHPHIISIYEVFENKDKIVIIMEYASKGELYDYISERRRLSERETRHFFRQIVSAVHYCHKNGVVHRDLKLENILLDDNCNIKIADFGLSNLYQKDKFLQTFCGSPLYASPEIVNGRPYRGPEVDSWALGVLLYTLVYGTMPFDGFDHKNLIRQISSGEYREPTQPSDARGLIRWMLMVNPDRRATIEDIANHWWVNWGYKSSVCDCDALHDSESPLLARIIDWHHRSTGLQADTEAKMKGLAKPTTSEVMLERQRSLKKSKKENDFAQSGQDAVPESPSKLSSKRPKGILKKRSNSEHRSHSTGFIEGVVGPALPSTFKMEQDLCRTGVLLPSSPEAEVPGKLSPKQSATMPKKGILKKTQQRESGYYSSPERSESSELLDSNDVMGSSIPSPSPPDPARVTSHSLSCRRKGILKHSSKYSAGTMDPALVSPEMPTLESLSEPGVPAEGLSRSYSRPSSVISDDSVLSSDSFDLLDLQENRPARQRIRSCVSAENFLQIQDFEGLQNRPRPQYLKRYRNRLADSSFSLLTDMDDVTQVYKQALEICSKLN

[13] = biological target: Platelet-derived growth factor receptor alpha (Homo sapiens, UniProt P16234)

Sequence of Vascular endothelial growth factor receptor 1 (P17948 whole entry): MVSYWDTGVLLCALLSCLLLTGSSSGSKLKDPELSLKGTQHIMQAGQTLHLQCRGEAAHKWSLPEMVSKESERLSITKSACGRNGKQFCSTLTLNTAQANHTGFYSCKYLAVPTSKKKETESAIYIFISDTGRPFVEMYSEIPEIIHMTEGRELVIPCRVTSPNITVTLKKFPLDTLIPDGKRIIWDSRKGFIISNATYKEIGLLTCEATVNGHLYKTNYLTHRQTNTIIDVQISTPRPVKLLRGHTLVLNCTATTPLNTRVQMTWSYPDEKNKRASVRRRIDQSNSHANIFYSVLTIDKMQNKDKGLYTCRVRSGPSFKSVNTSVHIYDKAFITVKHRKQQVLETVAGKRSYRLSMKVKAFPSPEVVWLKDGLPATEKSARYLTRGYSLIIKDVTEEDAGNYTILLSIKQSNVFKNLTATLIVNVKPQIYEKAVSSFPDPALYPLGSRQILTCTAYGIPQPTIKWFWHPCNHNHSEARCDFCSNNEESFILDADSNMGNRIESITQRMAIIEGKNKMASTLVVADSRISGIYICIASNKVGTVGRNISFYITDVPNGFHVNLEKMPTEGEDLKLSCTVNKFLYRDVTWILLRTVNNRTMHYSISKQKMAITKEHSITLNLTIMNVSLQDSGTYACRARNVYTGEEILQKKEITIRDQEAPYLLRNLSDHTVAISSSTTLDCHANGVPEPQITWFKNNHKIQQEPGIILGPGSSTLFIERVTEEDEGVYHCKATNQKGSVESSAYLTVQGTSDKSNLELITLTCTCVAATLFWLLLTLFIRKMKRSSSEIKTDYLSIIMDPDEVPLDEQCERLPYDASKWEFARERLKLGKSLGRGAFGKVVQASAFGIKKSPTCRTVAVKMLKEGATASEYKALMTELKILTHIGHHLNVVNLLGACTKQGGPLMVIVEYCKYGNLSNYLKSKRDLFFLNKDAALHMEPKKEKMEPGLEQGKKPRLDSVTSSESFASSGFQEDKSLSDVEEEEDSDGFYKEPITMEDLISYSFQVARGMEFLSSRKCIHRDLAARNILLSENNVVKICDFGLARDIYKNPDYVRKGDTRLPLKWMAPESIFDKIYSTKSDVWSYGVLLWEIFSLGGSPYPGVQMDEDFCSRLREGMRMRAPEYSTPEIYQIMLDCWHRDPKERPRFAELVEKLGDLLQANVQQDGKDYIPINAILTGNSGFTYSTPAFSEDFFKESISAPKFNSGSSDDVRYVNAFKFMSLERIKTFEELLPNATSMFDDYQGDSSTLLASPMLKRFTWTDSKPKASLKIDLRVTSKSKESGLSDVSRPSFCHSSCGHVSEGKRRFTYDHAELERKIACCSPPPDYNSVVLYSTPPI
Sequence of Cyclin-dependent kinase 7 (P50613 whole entry): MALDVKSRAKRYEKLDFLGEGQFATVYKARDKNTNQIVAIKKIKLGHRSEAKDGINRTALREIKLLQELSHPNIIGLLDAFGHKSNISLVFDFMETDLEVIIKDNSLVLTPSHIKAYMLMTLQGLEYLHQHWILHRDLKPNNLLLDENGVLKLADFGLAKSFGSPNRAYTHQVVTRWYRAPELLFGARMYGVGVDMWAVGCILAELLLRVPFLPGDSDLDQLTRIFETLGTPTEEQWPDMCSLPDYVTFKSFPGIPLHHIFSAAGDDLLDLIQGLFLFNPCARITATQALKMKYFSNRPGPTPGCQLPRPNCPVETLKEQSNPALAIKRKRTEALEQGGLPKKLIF
Sequence of ALK tyrosine kinase receptor (Q9UM73 whole entry): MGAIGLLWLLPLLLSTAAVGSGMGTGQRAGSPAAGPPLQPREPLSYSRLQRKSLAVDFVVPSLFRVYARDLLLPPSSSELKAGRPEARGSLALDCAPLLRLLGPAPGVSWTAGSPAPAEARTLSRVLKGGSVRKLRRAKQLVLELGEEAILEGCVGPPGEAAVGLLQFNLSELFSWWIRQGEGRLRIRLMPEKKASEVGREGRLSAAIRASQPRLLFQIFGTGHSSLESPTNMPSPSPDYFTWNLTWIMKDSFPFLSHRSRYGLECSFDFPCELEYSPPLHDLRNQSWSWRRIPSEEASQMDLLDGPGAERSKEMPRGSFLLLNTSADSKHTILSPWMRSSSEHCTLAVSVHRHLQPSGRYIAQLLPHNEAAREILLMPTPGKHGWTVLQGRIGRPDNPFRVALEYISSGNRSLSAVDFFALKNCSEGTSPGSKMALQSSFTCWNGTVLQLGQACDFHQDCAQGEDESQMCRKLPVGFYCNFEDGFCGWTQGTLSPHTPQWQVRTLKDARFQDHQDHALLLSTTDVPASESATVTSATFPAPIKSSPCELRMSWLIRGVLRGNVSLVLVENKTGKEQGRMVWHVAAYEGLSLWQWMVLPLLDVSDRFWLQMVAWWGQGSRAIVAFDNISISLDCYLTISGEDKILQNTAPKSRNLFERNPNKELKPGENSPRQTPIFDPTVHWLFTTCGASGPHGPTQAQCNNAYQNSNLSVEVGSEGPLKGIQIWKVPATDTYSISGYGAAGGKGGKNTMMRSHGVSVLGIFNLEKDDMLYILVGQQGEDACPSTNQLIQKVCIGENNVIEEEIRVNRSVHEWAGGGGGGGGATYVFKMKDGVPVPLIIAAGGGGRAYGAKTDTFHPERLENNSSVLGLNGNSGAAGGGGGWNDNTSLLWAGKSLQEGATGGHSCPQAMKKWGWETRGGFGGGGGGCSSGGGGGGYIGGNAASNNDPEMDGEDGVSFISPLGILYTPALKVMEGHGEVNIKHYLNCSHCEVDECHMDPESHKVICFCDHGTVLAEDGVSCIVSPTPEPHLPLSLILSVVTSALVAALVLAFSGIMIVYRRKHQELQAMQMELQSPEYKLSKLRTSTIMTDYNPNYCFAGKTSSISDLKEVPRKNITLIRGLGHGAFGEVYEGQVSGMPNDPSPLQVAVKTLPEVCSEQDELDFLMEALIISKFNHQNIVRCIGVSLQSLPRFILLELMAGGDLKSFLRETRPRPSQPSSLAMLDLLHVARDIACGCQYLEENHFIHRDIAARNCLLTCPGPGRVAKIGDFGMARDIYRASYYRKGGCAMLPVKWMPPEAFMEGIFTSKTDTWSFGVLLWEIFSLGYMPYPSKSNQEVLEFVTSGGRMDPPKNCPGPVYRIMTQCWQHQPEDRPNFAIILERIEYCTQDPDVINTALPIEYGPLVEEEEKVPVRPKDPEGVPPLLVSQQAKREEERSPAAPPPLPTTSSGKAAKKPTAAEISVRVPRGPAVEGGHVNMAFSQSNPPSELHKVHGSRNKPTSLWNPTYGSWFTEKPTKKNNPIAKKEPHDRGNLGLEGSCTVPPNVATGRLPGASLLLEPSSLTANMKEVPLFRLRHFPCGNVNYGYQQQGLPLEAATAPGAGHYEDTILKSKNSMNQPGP
Sequence of Protein kinase C delta type (Q05655 whole entry): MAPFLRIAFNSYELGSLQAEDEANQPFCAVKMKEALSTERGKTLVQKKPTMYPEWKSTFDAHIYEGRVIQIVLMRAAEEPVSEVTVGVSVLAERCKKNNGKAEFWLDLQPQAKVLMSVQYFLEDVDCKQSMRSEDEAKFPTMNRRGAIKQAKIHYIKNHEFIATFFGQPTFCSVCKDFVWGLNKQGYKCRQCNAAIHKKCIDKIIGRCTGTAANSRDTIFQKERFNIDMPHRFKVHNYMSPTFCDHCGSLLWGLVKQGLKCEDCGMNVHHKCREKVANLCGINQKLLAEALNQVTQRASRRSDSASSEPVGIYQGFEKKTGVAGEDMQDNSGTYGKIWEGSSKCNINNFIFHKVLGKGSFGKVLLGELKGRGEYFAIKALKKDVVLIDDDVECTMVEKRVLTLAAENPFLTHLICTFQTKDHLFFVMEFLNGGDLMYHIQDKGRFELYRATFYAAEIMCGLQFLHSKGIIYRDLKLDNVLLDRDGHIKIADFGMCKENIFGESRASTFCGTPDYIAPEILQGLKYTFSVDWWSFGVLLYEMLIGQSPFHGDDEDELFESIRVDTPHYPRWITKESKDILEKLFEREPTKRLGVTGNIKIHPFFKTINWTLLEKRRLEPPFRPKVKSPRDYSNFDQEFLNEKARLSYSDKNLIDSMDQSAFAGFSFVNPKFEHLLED
Sequence of Serine/threonine-protein kinase 32B (Q9NY57 whole entry): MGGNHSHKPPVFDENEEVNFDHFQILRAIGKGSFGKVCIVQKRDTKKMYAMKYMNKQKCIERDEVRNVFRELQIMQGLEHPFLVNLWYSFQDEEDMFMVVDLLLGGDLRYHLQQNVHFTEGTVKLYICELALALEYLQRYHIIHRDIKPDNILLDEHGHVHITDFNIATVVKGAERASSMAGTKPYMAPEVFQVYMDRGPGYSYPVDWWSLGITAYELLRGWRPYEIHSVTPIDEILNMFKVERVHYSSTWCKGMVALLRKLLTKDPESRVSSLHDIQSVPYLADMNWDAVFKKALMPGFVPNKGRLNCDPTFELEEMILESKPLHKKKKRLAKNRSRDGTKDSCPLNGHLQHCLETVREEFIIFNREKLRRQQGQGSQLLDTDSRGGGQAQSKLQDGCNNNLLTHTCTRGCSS
Sequence of RAC-gamma serine/threonine-protein kinase (Q9Y243 whole entry): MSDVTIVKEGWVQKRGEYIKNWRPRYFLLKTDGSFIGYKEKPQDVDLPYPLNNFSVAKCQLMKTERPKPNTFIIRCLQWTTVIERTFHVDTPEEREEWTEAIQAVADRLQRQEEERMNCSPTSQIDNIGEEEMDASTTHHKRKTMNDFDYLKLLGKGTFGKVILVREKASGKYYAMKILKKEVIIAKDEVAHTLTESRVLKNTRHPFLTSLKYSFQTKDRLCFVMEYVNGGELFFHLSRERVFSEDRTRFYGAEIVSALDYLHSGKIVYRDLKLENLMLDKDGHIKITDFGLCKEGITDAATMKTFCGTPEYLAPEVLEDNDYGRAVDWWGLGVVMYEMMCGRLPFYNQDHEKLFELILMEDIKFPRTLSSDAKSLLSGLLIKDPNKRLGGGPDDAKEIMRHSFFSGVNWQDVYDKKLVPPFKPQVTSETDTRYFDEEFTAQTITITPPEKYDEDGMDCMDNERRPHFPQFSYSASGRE

## COCC(=O)NC/C=C/c1ccc2ncnc(Nc3ccc(Oc4ccc(C)nc4)c(C)c3)c2c1 [CP-724714]
[1]
  pKd: < 5.00
[2]
  pKd: < 5.00
[3]
  pKd: < 5.00
eIF-2-alpha kinase GCN2
  pKd: < 5.00
[4]
  pKd: < 5.00
[5]
  pKd: < 5.00
[6]
  pKd: < 5.00
LIM domain kinase 2
  pKd: < 5.00
[7]
  pKd: < 5.00
[8]
  pKd: < 5.00
[9]
  pKd: < 5.00
[10]
  pKd: < 5.00
TGF-beta receptor type-1
  pKd: < 5.00
[11]
  pKd: < 5.00
[12]
  pKd: < 5.00
[13]
  pKd: < 5.00

## NC(=O)c1ccc(-c2nc(-c3ccc4c(c3)OCO4)c(-c3ccccn3)[nH]2)cc1 [SB-431542]
[1]
  pKd: < 5.00
[3]
  pKd: < 5.00
eIF-2-alpha kinase GCN2
  pKd: < 5.00
[4]
  pKd: < 5.00
[5]
  pKd: < 5.00
[6]
  pKd: < 5.00
LIM domain kinase 2
  pKd: < 5.00
[7]
  pKd: < 5.00
[8]
  pKd: < 5.00
[9]
  pKd: < 5.00
[10]
  pKd: < 5.00
[11]
  pKd: < 5.00
[12]
  pKd: < 5.00
[13]
  pKd: < 5.00

## Nc1nc(Nc2ccc(S(N)(=O)=O)cc2)nn1C(=O)c1c(F)cccc1F [JNJ-7706621]
[3]
  pKd: 5.35
eIF-2-alpha kinase GCN2
  pKd: 5.41
[4]
  pKd: 7.32
[6]
  pKd: < 5.00
[7]
  pKd: < 5.00
[9]
  pKd: < 5.00
[10]
  pKd: < 5.00
TGF-beta receptor type-1
  pKd: < 5.00
[11]
  pKd: < 5.00

## CCOc1cc2ncc(C#N)c(Nc3ccc(F)c(Cl)c3)c2cc1NC(=O)/C=C/CN(C)C [PELITINIB]
[1]
  pKd: 5.15
[2]
  pKd: 5.70
eIF-2-alpha kinase GCN2
  pKd: 6.54
[5]
  pKd: < 5.00
[6]
  pKd: < 5.00
LIM domain kinase 2
  pKd: < 5.00
[7]
  pKd: 5.22
[8]
  pKd: < 5.00
[9]
  pKd: < 5.00
[10]
  pKd: < 5.00
TGF-beta receptor type-1
  pKd: < 5.00
[11]
  pKd: < 5.00
[12]
  pKd: < 5.00
[13]
  pKd: < 5.00

## CCN1CCN(Cc2ccc(NC(=O)Nc3ccc(Oc4cc(NC)ncn4)cc3)cc2C(F)(F)F)CC1 [AST-487]
LIM domain kinase 2
  pKd: < 5.00

## Oc1ccc(-c2nc(-c3ccncc3)c(-c3ccc(F)cc3)[nH]2)cc1 [SB-202190]
[1]
  pKd: < 5.00
[2]
  pKd: < 5.00
[3]
  pKd: < 5.00
eIF-2-alpha kinase GCN2
  pKd: < 5.00
[4]
  pKd: 5.49
[5]
  pKd: < 5.00
[6]
  pKd: < 5.00
LIM domain kinase 2
  pKd: < 5.00
[7]
  pKd: 5.31
[8]
  pKd: < 5.00
[9]
  pKd: < 5.00
[10]
  pKd: < 5.00
TGF-beta receptor type-1
  pKd: < 5.00
[11]
  pKd: < 5.00
[12]
  pKd: < 5.00
[13]
  pKd: < 5.00
